The term IC50 denotes the midpoint of a concentration-inhibition curve. A word on the EC50: it is the concentration giving half of the maximal effect.

Read-outs that look alike come from different tables or passages of the source.

The record followed here is patent US11584747B2, “Substituted pyridopyrimidinonyl compounds useful as T cell activators” (BRISTOL-MYERS SQUIBB COMPANY, priority 2019, dated 2023).

Test [1] concerns the target T1, human DGKα (Homo sapiens (Human), UniProt P23743). Briefly: DGKα ADPGLO assay (detergent/lipid micelle substrate). Type of test: biochemical. The settings on record: ADPGLO assay; read-out: DGK alpha ADPGLO IC50. The protocol: DGK Alpha ADPGLO (Truncated) IC50 (uM)
The detergent/lipid micelle was prepared by combining 15 g phosphatidylserine (Avanti 840035P) and 1 g diacylglycerol (8008110) and dissolving into 150 mL chloroform in a 2 L round bottom flask. Chloroform was removed under high vacuum by rotary evaporation. […] The lipid/detergent solution was split into 5 mL aliquots and stored at −80° C.
On the technique in general: ADP-Glo turns the ADP formed in a reaction into a luminescent signal.

Test [2] has as its system human venous whole blood (IFN-γ). Briefly: Human whole blood IFN-γ assay. Type of test: cell-based. Conditions: human whole blood, anti-CD3 plus anti-CD28 stimulation, 24 hours, read-out: IFN-γ Whole Blood EC50. On the procedure: Human venous whole blood (22.5 μL per well), obtained from healthy donors, was pre-treated with compounds for one hour at 37° C. in a humidified 95% air/5% CO2 incubator. The blood was stimulated with 2.5 μL anti-human CD3 and anti-CD28 mAb at a final concentration of 1 μg/mL each for 24 hours at 37° C. IFN-γ in the supernatants was measured using AlphLISA kit (Cat #AL217).

The target in a further test is human DGKζ (Homo sapiens (Human), UniProt Q13574). Briefly: DGKζ LIPGLO assay (extruded liposome substrate, ADP-Glo luminescence). Type of test: biochemical. Conditions: liposome (LIPGLO) assay; read-out: DGK zeta (liposome assay) IC50.
In a further test the test system is whole blood (pERK). Briefly: pERK Whole Blood. Format: cell-based.
In test [3] the target is T1, human DGKα. Briefly: DGKα LIPGLO assay (extruded liposome substrate, ADP-Glo luminescence). Format: biochemical. Conditions: liposome (LIPGLO) assay; read-out: DGK alpha (liposome assay) IC50.

Chain of human DGKζ (Q13574 other isoform, or with tags, fused parts or gaps): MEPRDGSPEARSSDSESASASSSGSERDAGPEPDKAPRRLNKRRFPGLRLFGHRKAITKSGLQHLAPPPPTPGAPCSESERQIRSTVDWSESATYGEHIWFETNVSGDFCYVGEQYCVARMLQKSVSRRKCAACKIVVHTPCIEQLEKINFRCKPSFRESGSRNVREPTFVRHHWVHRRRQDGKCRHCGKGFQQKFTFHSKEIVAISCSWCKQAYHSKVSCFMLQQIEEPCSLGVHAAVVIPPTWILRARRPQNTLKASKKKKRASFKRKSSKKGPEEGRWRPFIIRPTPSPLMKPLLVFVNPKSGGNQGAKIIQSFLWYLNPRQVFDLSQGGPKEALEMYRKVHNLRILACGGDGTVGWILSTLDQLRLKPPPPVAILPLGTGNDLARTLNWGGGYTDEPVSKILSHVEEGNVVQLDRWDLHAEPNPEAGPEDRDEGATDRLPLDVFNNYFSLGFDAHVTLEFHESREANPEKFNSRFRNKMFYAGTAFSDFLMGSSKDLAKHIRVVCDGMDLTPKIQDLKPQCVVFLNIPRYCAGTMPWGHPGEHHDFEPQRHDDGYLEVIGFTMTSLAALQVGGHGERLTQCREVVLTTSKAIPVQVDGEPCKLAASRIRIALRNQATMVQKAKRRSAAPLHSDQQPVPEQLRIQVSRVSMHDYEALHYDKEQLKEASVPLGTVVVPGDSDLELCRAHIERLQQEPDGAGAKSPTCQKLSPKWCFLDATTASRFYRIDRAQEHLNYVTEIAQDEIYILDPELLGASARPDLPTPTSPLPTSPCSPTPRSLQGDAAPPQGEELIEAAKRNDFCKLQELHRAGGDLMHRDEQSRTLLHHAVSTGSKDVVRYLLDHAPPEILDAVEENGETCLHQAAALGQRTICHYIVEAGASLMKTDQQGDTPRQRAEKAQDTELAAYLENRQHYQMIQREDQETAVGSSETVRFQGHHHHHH
T1 sequence (P23743 whole entry, looked up, the tested form may be a part): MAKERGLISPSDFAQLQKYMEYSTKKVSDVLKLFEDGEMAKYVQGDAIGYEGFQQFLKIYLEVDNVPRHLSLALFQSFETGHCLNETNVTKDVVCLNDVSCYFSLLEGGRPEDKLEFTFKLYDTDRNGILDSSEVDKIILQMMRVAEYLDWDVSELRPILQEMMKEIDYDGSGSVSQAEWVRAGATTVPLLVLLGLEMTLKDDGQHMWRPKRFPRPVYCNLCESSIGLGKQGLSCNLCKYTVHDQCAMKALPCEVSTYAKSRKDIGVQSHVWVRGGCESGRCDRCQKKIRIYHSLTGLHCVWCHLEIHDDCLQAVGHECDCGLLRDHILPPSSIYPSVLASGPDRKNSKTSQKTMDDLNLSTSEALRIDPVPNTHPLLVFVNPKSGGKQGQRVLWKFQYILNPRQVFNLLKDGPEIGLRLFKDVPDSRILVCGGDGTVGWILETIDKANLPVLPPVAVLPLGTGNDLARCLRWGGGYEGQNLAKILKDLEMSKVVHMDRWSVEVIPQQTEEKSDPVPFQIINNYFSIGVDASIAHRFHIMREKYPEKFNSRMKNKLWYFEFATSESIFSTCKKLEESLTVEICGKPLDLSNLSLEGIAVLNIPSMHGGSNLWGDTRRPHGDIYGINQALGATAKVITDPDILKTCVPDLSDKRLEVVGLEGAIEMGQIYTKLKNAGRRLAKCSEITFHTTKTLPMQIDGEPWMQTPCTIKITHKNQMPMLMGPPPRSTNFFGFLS

For the compound `CCC(c1nc(C2CC2)no1)N1C[C@H](CC)N(c2nc(=O)n(C)c3ccc(C#N)nc23)C[C@H]1CC` (stereo partly drawn) [Example 363, 4-((2S,5R)-4-(1-(3-cyclopropyl-1,2,4-oxadiazol-5-yl)propyl)-2,5-diethylpiperazin-1-yl)-1-methyl-2-oxo-1,2-dihydropyrido[3,2-d]pyrimidine-6-carbonitrile], the half-inhibitory concentration (IC50) was determined as 17 nM at human DGKα [1] and 32 nM on human DGKζ. Moreover, the EC50 in test [2] (Homo sapiens, 24 h) came out at 160 nM; with whole blood (pERK) it was 24 nM.
Turning to `CCC(c1ccc(OC)cc1)N1C[C@H](C)N(c2nc(=O)n(C)c3ccc(C#N)nc23)C[C@H]1CC` (stereo partly drawn) [Example 305, 4-((2S,5R)-5-ethyl-4-(1-(4-methoxyphenyl)propyl)-2-methylpiperazin-1-yl)-1-methyl-2-oxo-1,2-dihydropyrido[3,2-d]pyrimidine-6-carbonitrile], the values for the IC50 on human DGKα [1] and at human DGKζ were 62 nM and 1400 nM, respectively. The concentration giving a half-maximal response (EC50) is 11700 nM in test [2] and 3670 nM in the test on whole blood (pERK).
For `CCC(c1ccc(OC)cc1)N1C[C@H](C)N(c2nc(=O)n(C)c3ccc(C#N)nc23)C[C@H]1CC` (stereo partly drawn) [Example 304, 4-((2S,5R)-5-ethyl-4-(1-(4-methoxyphenyl)propyl)-2-methylpiperazin-1-yl)-1-methyl-2-oxo-1,2-dihydropyrido[3,2-d]pyrimidine-6-carbonitrile] the same measures were 12 nM, 14 nM, 16 nM and 110 nM.
For the compound `CC(c1ccc(C(F)(F)F)cc1)N1C[C@H](C)N(c2nc(=O)n(C)c3ccc(Cl)nc23)C[C@H]1CN=[N+]=[N-]` (stereo partly drawn) [Example 402, 4-((2S,5S)-5-(Azidomethyl)-2-methyl-4-(1-(4-(trifluoromethyl)phenyl)ethyl)piperazin-1-yl)-6-chloro-1-methylpyrido[3,2-d]pyrimidin-2(1H)-one], the IC50 at human DGKα [3] is 49500 nM; on human DGKζ, 4760 nM. Also, the EC50 in test [2] (Homo sapiens, 24 h) was determined as 1390 nM; in the test on whole blood (pERK), 3670 nM.
Consider `CCC(c1ccc(OCC2CC2)cc1)N1C[C@H](C)N(c2nc(=O)n(C)c3ccc(C#N)nc23)C[C@H]1CC` (stereo partly drawn) [Example 308, 4-((2S,5R)-4-(1-(4-(cyclopropylmethoxy)phenyl)propyl)-5-ethyl-2-methylpiperazin-1-yl)-1-methyl-2-oxo-1,2-dihydropyrido[3,2-d]pyrimidine-6-carbonitrile], for which the half-inhibitory concentration (IC50) came to 62 nM on human DGKα [1] and 39 nM at human DGKζ. The EC50 in test [2] turned out to be 34 nM; in the test with whole blood (pERK), 890 nM.
As to `CC[C@H]1CN(C(c2ccc(F)cc2)c2noc(C3CC3)n2)[C@H](CC)CN1c1nc(=O)n(C)c2ccc(C#N)nc12` (single isomer, unassigned) [Example 371], the values for the half-inhibitory concentration (IC50) at human DGKα [1] and on human DGKζ were 13 nM and 100 nM, respectively. The EC50 came to 190 nM in test [2] (Homo sapiens, 24 h) and 3320 nM with whole blood (pERK).
The corresponding values for `CC[C@H]1CN(C(C)c2ccc(C(F)(F)F)cc2)[C@H](CC)CN1c1nc(=O)n(C)c2ccc(OCCN(C)C)nc12` (stereo partly drawn) [Example 431, 4-((2S,5R)-2,5-diethyl-4-(1-(4-(trifluoromethyl)phenyl)ethyl)piperazin-1-yl)-6-(2-(dimethylamino)ethoxy)-1-methylpyrido[3,2-d]pyrimidin-2(1H)-one] are 250000 nM, 250000 nM, 20000 nM and 20000 nM.
Consider `CC(c1ccc(CN2CCOC(C)(C)C2)cc1)N1C[C@H](C)N(c2nc(=O)n(C)c3ccc(C#N)nc23)C[C@H]1C` (single isomer, unassigned) [Example 385], for which the IC50 on human DGKα [1] was determined as 12 nM; at human DGKζ, 43 nM. Also, the EC50 turned out to be 130 nM in test [2] and 240 nM in the test on whole blood (pERK).
`CCC(c1ccc(OC(C)C)cc1)N1C[C@H](C)N(c2nc(=O)n(C)c3ccc(C#N)nc23)C[C@H]1CC` (stereo partly drawn) [Example 333, 4-((2 S,5R)-5-ethyl-4-(1-(4-isopropoxyphenyl)propyl)-2-methylpiperazin-1-yl)-1-methyl-2-oxo-1,2-dihydropyrido[3,2-d]pyrimidine-6-carbonitrile]: the IC50 at human DGKα [1] was found to be 90 nM; on human DGKζ, 72 nM. Also, the concentration for a half-maximal effect (EC50) was found to be 120 nM in test [2] and 100 nM in the test with whole blood (pERK).
For `CC(c1ccc(CN2CCC(F)(F)CC2)cc1)N1C[C@H](C)N(c2nc(=O)n(C)c3ccc(C#N)nc23)C[C@H]1C` (stereo partly drawn) [Example 391, 4-((2S,5R)-4-(1-(4-((4,4-difluoropiperidin-1-yl)methyl)phenyl)ethyl)-2,5-dimethylpiperazin-1-yl)-1-methyl-2-oxo-1,2-dihydropyrido[3,2-d]pyrimidine-6-carbonitrile] the same measures were 2020 nM, 1340 nM, 720 nM and 1130 nM.
The corresponding values for `CCC(c1ccc(OC(C)C)cc1)N1C[C@H](C)N(c2nc(=O)n(C)c3ccc(C#N)nc23)C[C@H]1CC` (stereo partly drawn) [Example 334, 4-((2 S,5R)-5-ethyl-4-(1-(4-isopropoxyphenyl)propyl)-2-methylpiperazin-1-yl)-1-methyl-2-oxo-1,2-dihydropyrido[3,2-d]pyrimidine-6-carbonitrile] are 460 nM, 530 nM, 730 nM and 20000 nM.
The corresponding values for `CCC(c1ccc(C(F)(F)F)cc1)N1C[C@H](CC)N(c2nc(=O)n(C)c3ccc(OC)nc23)C[C@H]1CC` (stereo partly drawn) [Example 435, 4-((2S,5R)-2,5-diethyl-4-(1-(4-(trifluoromethyl)phenyl)propyl)piperazin-1-yl)-6-methoxy-1-methylpyrido[3,2-d]pyrimidin-2(1H)-one] are 1900 nM, 5510 nM, 4160 nM and 7290 nM.
Consider `COC(=O)NC[C@@H]1CN(c2nc(=O)n(C)c3ccc(C#N)nc23)[C@@H](C)CN1C(C)c1ccc(C(F)(F)F)cc1` (some centres unmarked) [Example 405], for which the IC50 at human DGKα [3] turned out to be 13600 nM; at human DGKζ, 110 nM. Moreover, the EC50 was 1190 nM in test [2] (Homo sapiens, 24 h) and 2580 nM in the test with whole blood (pERK).
`CC(c1ccc(CN2CCC(F)(F)CC2)cc1)N1C[C@H](C)N(c2nc(=O)n(C)c3ccc(C#N)nc23)C[C@H]1C` (stereo partly drawn) [Example 390, 4-((2S,5R)-4-(1-(4-((4,4-difluoropiperidin-1-yl)methyl)phenyl)ethyl)-2,5-dimethylpiperazin-1-yl)-1-methyl-2-oxo-1,2-dihydropyrido[3,2-d]pyrimidine-6-carbonitrile]: the half-inhibitory concentration (IC50) came out at 97 nM at human DGKα [1] and 180 nM on human DGKζ. The EC50 was 40 nM in test [2] and 20000 nM in the test with whole blood (pERK).
On to `CCC(c1ccc(OCC2(C)CC2)cc1)N1C[C@H](C)N(c2nc(=O)n(C)c3ccc(C#N)nc23)C[C@H]1CC` (stereo partly drawn) [Example 346, 4-((2S,5R)-5-ethyl-2-methyl-4-(1-(4-((1-methylcyclopropyl)methoxy)phenyl)propyl)piperazin-1-yl)-1-methyl-2-oxo-1,2-dihydropyrido[3,2-d]pyrimidine-6-carbonitrile], for which the 50% inhibitory concentration (IC50) was determined as 1280 nM on human DGKα [1] and 1240 nM on human DGKζ. For the same compound, the EC50 in the test with whole blood (pERK) worked out at 190 nM.
The corresponding values for `CCC(c1ccc(OCc2nccs2)cc1)N1C[C@H](C)N(c2nc(=O)n(C)c3ccc(C#N)nc23)C[C@H]1CC` (stereo partly drawn) [Example 348, 4-((2S,5R)-5-ethyl-2-methyl-4-(1-(4-(thiazol-2-ylmethoxy)phenyl)propyl)piperazin-1-yl)-1-methyl-2-oxo-1,2-dihydropyrido[3,2-d]pyrimidine-6-carbonitrile] are 61 nM, 45 nM and 1950 nM.
Take `CCC(c1nc(C2CC2)no1)N1C[C@H](CC)N(c2nc(=O)n(C)c3ccc(C#N)nc23)C[C@H]1CC` (stereo partly drawn) [Example 364, 4-((2S,5R)-4-(1-(3-cyclopropyl-1,2,4-oxadiazol-5-yl)propyl)-2,5-diethylpiperazin-1-yl)-1-methyl-2-oxo-1,2-dihydropyrido[3,2-d]pyrimidine-6-carbonitrile]: the 50% inhibitory concentration (IC50) worked out at 53 nM on human DGKα [1] and 330 nM at human DGKζ. In the test with whole blood (pERK), this compound displayed a 50% effective concentration (EC50) of 1800 nM.
In the case of `CC[C@@H]1CN(c2nc(=O)n(C)c3ccc(C#N)nc23)[C@@H](C)CN1C(c1nc(C2CC2)no1)C(C)C` (stereo partly drawn) [Example 365, 4-((2S,5R)-4-(1-(3-cyclopropyl-1,2,4-oxadiazol-5-yl)-2-methylpropyl)-5-ethyl-2-methylpiperazin-1-yl)-1-methyl-2-oxo-1,2-dihydropyrido[3,2-d]pyrimidine-6-carbonitrile], the half-maximal inhibitory concentration (IC50) at human DGKα [1] was 16 nM; at human DGKζ, 21 nM. In addition, the EC50 in the test on whole blood (pERK) is 4410 nM.
